Assay results published in patent US8557848B2, “4,5-ring annulated indole derivatives for treating or preventing of HCV and related viral infections” (Merck Sharp & Dohme Corp., priority 2006, dated 2013).
Like-named read-outs stand apart in the source and are kept apart here.

Key:
[1] = system: HCV replicon cells (replicon RNA level); test: Cell-Based HCV Replicon Assay; details: Hepatitis C virus, 72 h; replicon RNA level by real time PCR (Taqman), cells harvested on day 3; read-out: EC50
Experimental: To measure cell-based anti-HCV activity of the a Compound of Formula (I), replicon cells were seeded at 5000 cells/well in 96-well collagen I-coated Nunc plates in the presence of the Compound of Formula (I). Various concentrations of a Compound of Formula (I), typically in 10 serial 2-fold dilutions, were added to the assay mixture, with the starting concentration ranging from 250 μM to 1 μM. The final concentration of DMSO was 0.5%, fetal bovine serum was 5%, in the assay media. Cells were harvested on day 3 by the addition of 1× cell lysis buffer (Ambion cat #8721). The replicon RNA level was measured using real time PCR (Taqman assay). The amplicon was located in 5B. The PCR primers were: 5B.2F, ATGGACAGGCGCCCTGA; 5B.2R, […]; the probe sequence was FAM-labeled CACGCCATGCGCTGCGG. GAPDH RNA was used as endogenous control and was amplified in the same reaction as NS5B (multiplex PCR) using primers and VIC-labeled probe recommended by the manufacturer (PE Applied Biosystem). The real-time RT-PCR reactions were run on ABI PRISM 7900HT Sequence Detection System using the following program: 48° C. for 30 min, 95° C. for 10 min, 40 cycles of 95° C. for 15 sec, 60° C. for 1 min. The ΔCT values (CT5B-CTGAPDH) were plotted against the concentration of test compound and fitted to the sigmoid dose-response model using XLfit4 (MDL). EC50 was defined as the concentration of inhibitor necessary to achieve ΔCT=1 over the projected baseline; EC90 the concentration necessary to achieve ΔCT=3.2 over the baseline. Alternatively, to quantitate the absolute amount of replicon RNA, a standard curve was established by including serially diluted T7 transcripts of replicon RNA in the Taqman assay. All Taqman reagents were from PE Applied Biosystems. Such an assay procedure was described in detail in e.g. Malcolm et al., Antimicrobial Agents and Chemotherapy 50: 1013-1020 (2006).
HCV Replicon assay data for selected Compounds of Formula (I) is provided below in Table 1, wherein the compound numbers correspond to the compound numbering set forth in the above specification.

[2] = molecular target: T1, HCV NS5B polymerase (NS5BΔCT21, from HCV-Con 1 isolate, genotype 1b) (Hepatitis C virus genotype 1b, UniProt Q9WMX2); test: HCV NS5B Polymerase Inhibition Assay; type: biochemical
T1 construct: A soluble C-terminal 21-amino acid truncated NS5B enzyme form; polyhistidine (C); made in house; host or cells: Escherichia coli
Excerpt: A chemically synthesized 75-mer version, designated DCoH75, whose sequence matches the 3′-end of D-RNA, and DCoH75ddC, where the 3′-terminal cytidine of DCoH75 is replaced by dideoxycytidine, were used for assaying the NS5B enzyme activity as described in Ferrari et al., 12th International Symposium on HCV and Related Viruses, P-306 (2005). The sequence of the template RNA was: 5′-UGUGCCGGUCUUUCUGAACGGGAUAUAAACCUGGCCAGCUUCAUCGAACAAGUUGCCGUGUCUAUGACAUAGAUC-3′. A soluble C-terminal 21-amino acid truncated NS5B enzyme form (NS5BΔCT21, from HCV-Con 1 isolate, genotype 1b, Genbank accession number AJ238799) was produced and purified from Escherichia coli as C-terminal polyhistidine-tagged fusion protein as described in Ferrari et al., J. Virol. 73:1649-1654 (1999). A typical assay contained 20 mM Hepes pH 7.3, 10 mM MgCl2, 60 mM NaCl, 100 μg/ml BSA, 20 units/ml RNasin, 7.5 mM DTT, 0.1 μM ATP/GTP/UTP, 0.026 μM CTP, 0.25 mM GAU, 0.03 μM RNA template, 20 μCi/ml [^33P]-CTP, 2% DMSO, and 30 or 150 nM NS5B enzyme. Reactions were incubated at 22° C. for 2 hours, then stopped by adding 150 mM EDTA, washed in DE81 filter plate in 0.5M di-basic sodium phosphate buffer, pH 7.0, and counted using Packard TopCount after the addition of scintillation cocktail. Polynucleotide synthesis was monitored by the incorporation of radiolabeled CTP. The effect of the Compounds of Formula (I) on the polymerase activity was evaluated by adding various concentrations of a Compound of Formula (I), typically in 10 serial 2-fold dilutions, to the assay mixture. The starting concentrations ranged from 200 μM to 1 μM. An IC50 value for the inhibitor, defined as the compound concentration that provides 50% inhibition of polymerase activity, was determined by fitting the cpm data to the Hill equation Y=100/(1+10^((LogIC50-X)*HillSlope)), where X is the logarithm of compound concentration, and Y is the % inhibition. Ferrari et al., 12th International Symposium on HCV and Related Viruses, P-306 (2005) described in detail this assay procedure. It should be noted that such an assay as described is exemplary and not intended to limit the scope of the invention. The skilled practitioner can appreciate that modifications including but not limited to RNA template, primer, nucleotides, NS5B polymerase form, buffer composition, can be made to develop similar assays that yield the same result for the efficacy of the compounds and compositions described in the invention.
NS5B polymerase inhibition data for selected Compounds of Formula (I) is provided below in Table 2, wherein the compound numbers correspond to the compound numbering set forth in the above specification.

[3] = NS5B polymerase inhibition, [33P]-CTP incorporation, 22° C. for 2 hours, read-out: IC50

Compound | EC50 [1] [nM] | IC50 [2, 3] [nM] | IC50 [2] [nM]
Nc1noc2ccc(Cn3c(C(=O)O)c(-c4ccc[nH]c4=O)c4c5occc5c(F)cc43)cc12 [Compound 102] | < 500 | < 25 | 
O=C(O)c1c(-c2ccc[nH]c2=O)c2c3occc3c(F)cc2n1Cc1ccc2[nH]c(=O)[nH]c2c1 [Compound 103] | < 500 | < 25 | 
COc1ccc([N+](=O)[O-])cc1Cn1c(C(=O)O)c(-c2ccc[nH]c2=O)c2c3occc3ccc21 [Compound 104] | > 1500 | < 25 | 
O=C(O)c1c(-c2ccc[nH]c2=O)c2c3occc3c(F)cc2n1Cc1cc2nc[nH]c2cc1F [Compound 105] | < 500 | < 25 | 
NC(=O)c1ccc(F)c(Cn2c(C(=O)O)c(-c3ccc[nH]c3=O)c3c4occc4c(F)cc32)c1 [Compound 107] | < 500 | < 25 | 
O=C(O)c1ccc(F)c(Cn2c(C(=O)O)c(-c3ccc[nH]c3=O)c3c4occc4c(F)cc32)c1 [Compound 108] | 500 to 1500 | < 25 | 
NC(=O)c1cnc(F)c(Cn2c(C(=O)O)c(-c3ccc[nH]c3=O)c3c4occc4c(F)cc32)c1 [Compound 109] | < 500 | < 25 | 
O=C(O)c1c(-c2ccc[nH]c2=O)c2c3occc3c(F)cc2n1Cc1cc([N+](=O)[O-])ccc1F [Compound 111] | < 500 | < 25 | 
NC(=O)c1cnc(F)c(Cn2c(C(=O)O)c(-c3ccc[nH]c3=O)c3c4c(c(F)cc32)CCO4)c1 [Compound 113] | < 500 | < 25 | 
O=C(O)c1c(-c2ccc[nH]c2=O)c2c3occc3c(F)cc2n1Cc1cc(=O)[nH]c2ccccc12 [Compound 114] | < 500 |  | < 25
O=C(O)c1c(-c2ccc[nH]c2=O)c2c3occc3c(F)cc2n1Cc1cc2ccccc2[nH]c1=O [Compound 115] | < 500 | < 25 | 
O=C(O)c1c(-c2ccc[nH]c2=O)c2c3occc3ccc2n1Cc1cc2ccccc2nc1Cl [Compound 116] | < 500 | < 25 | 
O=C(O)c1c(-c2ccc[nH]c2=O)c2c3occc3c(F)cc2n1Cc1nc2ccccc2[nH]c1=O [Compound 117] | < 500 | < 25 | 
O=C(O)c1c(-c2ccc[nH]c2=O)c2c3occ(Cl)c3c(F)cc2n1Cc1cc(F)ccc1F [Compound 119] | < 500 | < 25 | 
O=C(O)c1c(-c2ccc[nH]c2=O)c2c3occc3c(F)cc2n1Cc1cc2nc[nH]c2cc1Cl [Compound 120] | < 500 | < 25 | 
CNC(=O)c1ccc(F)c(Cn2c(C(=O)O)c(-c3ccc[nH]c3=O)c3c4occc4c(F)cc32)c1 [Compound 121] | < 500 | < 25 | 
O=C(O)c1c(-c2ccc[nH]c2=O)c2c3occc3c(F)cc2n1Cc1cc2ccccc2nc1Cl [Compound 126] | < 500 |  | < 25
O=C(O)c1c(-c2ccc[nH]c2=O)c2c3occc3c(F)cc2n1Cc1cc2c(=O)[nH]cnc2cc1F [Compound 127] | < 500 | < 25 | 
O=C(O)c1c(-c2ccccc2F)c2c3occc3c(F)cc2n1Cc1cc2ccccc2nc1Cl [Compound 128] | < 500 | > 100 | 

Compound | EC50 [1] [nM] | IC50 [2, 3] [nM] | IC50 [2] [nM]
CCOC(=O)c1c(-c2ccc[nH]c2=O)c2c3occc3c(F)cc2n1Cc1cc(C(N)=O)ccc1F [Compound 130] | < 500 | 25 to 100 | 
O=C(O)c1c(-c2ccc[nH]c2=O)c2c3occc3c(F)cc2n1Cc1cc2[nH]c(=O)[nH]c2cc1Cl [Compound 131] | < 500 | < 25 | 
Cc1cc2ccc3c(c(-c4ccc[nH]c4=O)c(C(=O)NS(C)(=O)=O)n3Cc3ccccc3F)c2o1 [Compound 132] | 500 to 1500 | 25 to 100 | 
CS(=O)(=O)NC(=O)c1c(-c2ccc[nH]c2=O)c2c3occc3c(F)cc2n1Cc1ccnc(N)c1 [Compound 133] | < 500 | < 25 | 
CS(=O)(=O)NC(=O)c1c(-c2ccc[nH]c2=O)c2c3occc3c(F)cc2n1Cc1ccccc1F [Compound 134] | < 500 | < 25 | 
O=C(O)c1c(-c2ccc[nH]c2=O)c2c3occc3c(F)cc2n1Cc1cc(=O)[nH]cc1Br [Compound 135] | < 500 | < 25 | 
O=C(O)c1c(-c2ccc[nH]c2=O)c2c3occc3c(F)cc2n1Cc1nc(Br)ccc1F [Compound 136] | < 500 | < 25 | 
Cc1ccccc1Cn1c(C(=O)NS(=O)(=O)C2CC2)c(-c2ccc[nH]c2=O)c2c3occc3ccc21 [Compound 138] | < 500 | < 25 | 
Cc1ccc2cc(Cn3c(C(=O)O)c(-c4ccc[nH]c4=O)c4c5occc5c(F)cc43)c(Cl)nc2c1 [Compound 139] | < 500 | < 25 | 
Cc1ccc2nc(Cl)c(Cn3c(C(=O)O)c(-c4ccc[nH]c4=O)c4c5occc5c(F)cc43)cc2c1 [Compound 140] | < 500 | < 25 | 
O=C(NC1CC1)c1ccc(F)c(Cn2c(C(=O)O)c(-c3ccc[nH]c3=O)c3c4occc4c(F)cc32)c1 [Compound 141] | > 1500 | < 25 | 
Cc1nn(C)c2nc(Cl)c(Cn3c(C(=O)O)c(-c4ccc[nH]c4=O)c4c5occc5c(F)cc43)cc12 [Compound 143] | < 500 | < 25 | 
O=C(O)c1c(-c2ccc[nH]c2=O)c2c3occc3c(F)cc2n1Cc1ccc2[nH]c(C(F)(F)F)nc2c1 [Compound 145] | 500 to 1500 | < 25 | 
Cc1cccc(Cn2c(C(=O)NS(C)(=O)=O)c(-c3ccc[nH]c3=O)c3c4occc4c(F)cc32)c1F [Compound 146] | < 500 | < 25 | 
Cc1cc2ccc3c(c(-c4ccc[nH]c4=O)c(C(=O)NS(C)(=O)=O)n3Cc3cc(F)ccc3F)c2o1 [Compound 147] | > 1500 | < 25 | 
C[C@@H]1COc2c1ccc1c2c(-c2ccc[nH]c2=O)c(C(=O)NS(C)(=O)=O)n1Cc1cc(F)ccc1F [Compound 148] | < 500 | < 25 | 
CS(=O)(=O)NC(=O)c1c(-c2ccc[nH]c2=O)c2c3occc3c(F)cc2n1Cc1cc(F)ccc1F [Compound 150] | < 500 | < 25 | 
CS(=O)(=O)NC(=O)c1c(-c2ccc[nH]c2=O)c2c3occc3cc(F)c2n1Cc1cc(F)ccc1F [Compound 151] | 500 to 1500 | < 25 | 
Cc1ccc(Cn2c(C(=O)NS(=O)(=O)C3CC3)c(-c3ccc[nH]c3=O)c3c4occc4ccc32)c(C)c1 [Compound 152] | < 500 | < 25 | 
